According to US20070021348A1, “Novel treatment” (SmithKline Beecham Corp., & SmithKline Beecham, p.l.c., priority 1999, published 2007):
Starred links: 1 amine or outer side, 2 acyl side, 3 side chain; linkers in the order of their positions; H or OH if unused. Non-standard residues stand in square brackets, D forms with d. Residues, ends and D or L forms follow the SMILES beside them. *: point of attachment. Hexanoyl(5S-NH,4S-OH,6-Ph) = O=C(CC[C@H](O)[C@H](Cc1ccccc1)N[*:1])[*:2]; X2 = C[C@H](C[C@H](O)[C@H](Cc1ccccc1)N[*:1])C(=O)[*:2]; X3 = Nc1ccc2c(c1)Oc1ccccc1C21OC(=O)c2cc(C(=O)*)ccc21; X1 = CC(C)C[C@H](N[*:1])[C@@H](O)CCC(=O)[*:2]

Key:
Asp2-Fc enzyme [1] = target: T1, Asp2-Fc enzyme (Homo sapiens, UniProt P56817); assay: Fluorescence Resonance Energy Transfer (FRET) cleavage assay for Asp2; format: biochemical; details: 0.5 uM fluorescent Swedish variant APP beta-site peptide substrate, 25 nM enzyme, pH 3.8
T1 construct: A cDNA fragment encoding Asp 2, amino acids 1 to 460; made in house; host or cells: CHO E1A (derived from DG-44), secreted, purified on Protein A
Protocol: Preparation of Asp 2—Fc Fusion Protein (Asp 2(1-460)-Fc)
A cDNA fragment encoding Asp 2, amino acids 1 to 460 (EP855444 but with 130 Glu->Val), was subcloned to create a fusion protein with human immunoglobulin, residues 99-330 of IgGI, and cloned into the mammalian expression vector pCDN (Aiyar et al). The plasmid was linearized by digestion with Not 1 (15 ug DNA, 37′C, overnight), sterially precipitated and resuspended into 50 ul 1 X TE buffer (10 mM Tris, 1 mM EDTA, pH 7.5). […]
A peptide (X) based on the sequence of the Swedish variant APP beta-site sequence has been doubly labelled for use in a FRET assay. […] This would allow cleavage of the intervening peptide sequence by Asp2 to be monitored by energy transfer between the two fluorescent groups.
The fluorescent peptide substrate (0.5 uM) was incubated with Asp2-Fc enzyme, prepared as described above, in a buffer containing 50 mM sodium acetate, 20 mM sodium chloride, 5% glycerol, 0.1% CHAPS (3-[(3-Cholamidopropyl) dimethylammonio]-1-propane-sulphonate), pH 3.8). The assays were started by addition of enzyme (25 nM final concentration) and cleavage monitored on a fluorescent platereader with 485 nm excitation, 538 nm emission. […]
This assay was used to determine IC50 and Ki values for compounds of interest. […] Asp 2 Fluorescence Polarisation Assay.

Asp2-Fc enzyme [2] = target: T1, Asp2-Fc enzyme; assay: Asp 2 fluorescence polarisation assay, Kd of labelled ligand; details: ligand 1-100 nM, enzyme from 100 nM down in twofold dilutions, pH 4.0, 15 min equilibration, anisotropy; read-out: Kd for the tight binding interaction
Protocol: A competition assay has also been designed to identify compounds acting at the Asp2 active site. The hydroxyethylene inhibitor, (I), has been modified by addition of 5-, 6-rhodamine green to the free N-terminal amine of the compound to create labelled ligand (III). [drawing 4] The resulting compound was tested experimentally as follows to determine the Kd with Asp2-Fc enzyme, prepared as above.
A three dimensional analysis varying enzyme and compound (III) was performed. Ligand concentration range was 1, 3, 10, 30 and 100 nM. Enzyme concentration range was from 100 nM down in serial twofold dilutions (11 dilutions+no enzyme control). Ligand of appropriate concentration was prepared in 5% DMSO. The enzyme solutions were prepared in 2 times (×2) assay buffer (where ×1=50 mM sodium acetate, 20 mM sodium chloride, 5% glycerol, 0.1% CHAPS, pH 4.0). 5 ul of the enzyme solution (of varying concentration) was mixed with 5 ul of the ligand (of varying concentration) in a low volume 384 microtitre plate. The samples were allowed to equilibrate for 15 min before the fluorescence polarisation was read on an LJL Acquest platereader.
The Anisotropy values were plotted and the Kd for the tight binding interaction obtained.

Asp2-Fc enzyme [3] = target: T1, Asp2-Fc enzyme; assay: Asp 2 fluorescence polarisation competition assay against labelled ligand (III); format: binding
Protocol: Enzyme (at a fixed concentration of 25 nM), ligand (III) (at a fixed concentration of 2.5 nM) and test compound (10 uM down in twofold serial dilutions) were mixed in ×1 assay buffer (50 mM 50 mM sodium acetate, 20 mM sodium chloride, 5% glycerol, 0.1% CHAPS, pH 3.8) in a final assay volume of 10 ul and allowed to equilibrate for 3 hrs. The fluorescence polarisation was then read. The experiment was performed in duplicate.

## CC(C)[C@H](NC(=O)[C@@H](N)CCC(=O)O)C(=O)N[C@@H](CC(N)=O)C(=O)N[C@@H](Cc1ccccc1)[C@@H](O)CCC(=O)N[C@@H](C)C(=O)N[C@@H](CCC(=O)O)C(=O)N[C@@H](Cc1ccccc1)C(=O)O [(I)] (H-EVN[Hexanoyl(5S-NH,4S-OH,6-Ph)]AEF-OH)
Asp2-Fc enzyme [1]
  Ki: 7.7 nM

## CC(C)[C@H](NC(=O)[C@@H](N)CCC(=O)O)C(=O)N[C@@H](CC(N)=O)C(=O)N[C@@H](Cc1ccccc1)[C@@H](O)C[C@@H](C)C(=O)N[C@@H](C)C(=O)N[C@@H](CCC(=O)O)C(=O)N[C@@H](Cc1ccccc1)C(=O)O [(II)] (H-EVN[X2]AEF-OH)
Asp2-Fc enzyme [1]
  Ki: 7.3 nM

## CC(C)[C@H](NC(=O)[C@H](CCC(=O)O)NC(=O)c1ccc2c(c1)C(=O)OC21c2ccccc2Oc2cc(N)ccc21)C(=O)N[C@@H](CC(N)=O)C(=O)N[C@@H](Cc1ccccc1)[C@@H](O)CCC(=O)N[C@@H](C)C(=O)N[C@@H](CCC(=O)O)C(=O)N[C@@H](Cc1ccccc1)C(=O)O (stereo partly drawn) [(III)] (X3-EVN[Hexanoyl(5S-NH,4S-OH,6-Ph)]AEF-OH)
Asp2-Fc enzyme [2]
  Kd: 1.22 nM

## CC(C)C[C@H](NC(=O)[C@H](C)NC(=O)[C@@H](NC(=O)[C@@H](N)CCC(=O)O)C(C)C)[C@@H](O)CCC(=O)N[C@@H](C)C(=O)N[C@@H](CCC(=O)O)C(=O)N[C@@H](Cc1ccccc1)C(=O)O [Compound (IV)] (H-EVA[X1]AEF-OH)
Asp2-Fc enzyme [3]; 25 nM enzyme, 2.5 nM ligand (III), pH 3.8, 3 hrs equilibration, duplicate
  Ki: 67.5 nM
Asp2-Fc enzyme [3]; at the highest concentrations of test compound (10 uM down in twofold serial dilutions)
  displacement of the fluorescent ligand (III): Complete displacement
